Common to all, as to test: microbe, parasite or virus in culture
Assay type in all cases: cell-based
What all share (details): Severe acute respiratory syndrome coronavirus 2, vero cells

Assay [1] relates to SARS-CoV-2 Alpha var (B.1.1.7).
Assay [2] concerns SARS-CoV-2 Beta var (B.1.351).
The test system of assay [3] is SARS-CoV-2 Delta var (B.1.617.2).

For `CC(=O)c1c(O)c(C)c(O)c2c1OC1=CC(=O)C(C(C)=O)C(=O)[C@@]12C` (single isomer, unassigned; (+)) [(+)-usnic acid], the IC50 in assay [1] is 6.05 µM; in assay [2], 2.92 µM; in assay [3] it was 7.17 µM.

Take `CCN(CC)CCCC(C)Nc1ccnc2cc(Cl)ccc12` (stereo not drawn) [chloroquine]: the figures for the 50% inhibitory concentration (IC50) in assay [1], in assay [2] and in assay [3] were 6.16 µM, 2.64 µM and 6.22 µM, respectively.

For `CCC(CC)COC(=O)[C@H](C)N[P@](=O)(OC[C@H]1O[C@@](C#N)(c2ccc3c(N)ncnn23)[C@H](O)[C@@H]1O)Oc1ccccc1` [remdesivir], the concentration for half-maximal inhibition (IC50) in assay [1] was 2.25 µM; in assay [2] it was 1.47 µM; in assay [3], 6.48 µM.

As for `Cc1cccc(C)c1OCC(=O)N[C@@H](Cc1ccccc1)[C@@H](O)C[C@H](Cc1ccccc1)NC(=O)[C@H](C(C)C)N1CCCNC1=O` [lopinavir], the 50% inhibitory concentration (IC50) in assay [1] was 10.8 µM; in assay [2], 11.8 µM; in assay [3], 15.3 µM.

(Values after article PMC9338942, “(+)-Usnic acid and its salts, inhibitors of SARS‐CoV‐2, identified by using in silico methods and in vitro assay” (Scientific Reports, 2022).)
